Source: US5610297A, “Peptides ketoamides” (Georgia Tech Research Corp., priority 1995, dated 1997)

Tests used:
Half-life in liver = assay type: in vitro ADME; conditions: unit inferred, unit assumed
[1] = system: Calpain-mediated breakdown of spectrin in platelets; assay: Platelet membrane permeability assay; assay type: cell-based, rat; design: unit not given here; conditions: numeric value, unit not given
Experimental: Platelet membrane permeability assay. Calpain-mediated breakdown of spectrin was measured by quantitative densitometry of the calpain-specific 150/155 kDa spectrin fragment doublet [see Siman et al., Proc. Natl. Acad. Sci. USA 81, 3572-3576 (1984)]. Platelets were isolated by a modification of the method of Ferrell and Martin [J. Biol. Chem. 264, 20723-20729 (1989)]. Blood (15-20 ml) was drawn from male Sprague-Dawley rats into 1/10th volume of 100 mM EDTA-citrate, and centrifuged 10 minutes at 2000 rpm in a clinical centrifuge at room temperature. […] Platelets were washed once in 15 ml buffer 1, then resuspended to 10^7 cells/ml in buffer 2 (136 mM NaCl, 2.7 mM KCl, 0.42 mM NaH2 PO4, 12 mM NaHCO3, 2mM MgCl, 1 mg/ml BSA (Sigma), 5.6 mM glucose, 20 mM HEPES (Sigma) pH 7.4) and allowed to "rest" for a minimum of 10 minutes at room temperature before use.
Inhibitors were added from stock solutions made fresh in DMSO. 100 μl platelets, suspended to 10^7 cells/ml in buffer 2, were incubated with 1 μl of an inhibitor solution for 5 minutes at room temperature prior to the addition of 2 mM Ca^2+ and 1 uM A23 187. After 10 minutes total exposure to inhibitor (5 minutes exposure to ionophore) at room temperature, platelets were reisolated at 14,000 rpm for 10 sec in a Beckman microfuge, dissolved in SDS-PAGE sample buffer, and heated to 90° C. for 3 minutes.
Samples were subjected to SDS-PAGE in 4-12% gradient mini gels (Novex) and transferred to nitrocellulose (Schleicher and Schuell 0.45 um) by electroblotting. Filters were blocked for 10 minutes in 0.25% gelatin, 1% BSA, 0.25% triton X100, 0.9% NaCl, 10 mM Tris-Cl pH 7.5, incubated overnight in the same solution containing antibody to rat spectrin, washed 3×10 minutes with 10 mM Tris-Cl pH 7.5, 0.5% triton X100, incubated 4 hours in wash buffer plus alkaline phosphatase conjugated goat anti-rabbit antibody (Biorad), and washed as above. Blots were developed using the Biorad AP conjugate substrate kit. Quantitative densitometry was used to obtain values for the intact spectrin bands and the 150/155 kDa breakdown product doublet.

Row | Structure (SMILES) | t 1/2 liver (Half-life in liver) [min] | platelet (Activity in the Platelet Assay) [1]
1 | CCNC(=O)C(=O)[C@H](Cc1ccccc1)NC(=O)[C@H](CC(C)C)NC(=O)OCc1ccccc1 [Z--Leu--Phe--CONH--Et, Z-Leu-Phe-CONH-Et] | > 60 | 1.7
2 | CCNC(=O)C(=O)[C@H](CC)NC(=O)[C@H](CC(C)C)NC(=O)OCc1ccccc1 [Z--Leu--Abu--CONH--Et, Z-Leu-Abu-CONH-Et] | > 60 | 1.5
3 | CCCNC(=O)C(=O)C(Cc1ccccc1)NC(=O)C(CC(C)C)NC(=O)OCc1ccccc1 (stereo not drawn) [Z--Leu--Phe--CONH--nPr, Z-Leu-Phe-CONH-nPr] | > 60 | 24
4 | CCCCNC(=O)C(=O)C(CC)NC(=O)C(CC(C)C)NC(=O)OCc1ccccc1 (stereo not drawn) [Z--Leu--Abu--CONH--nBu, Z-Leu-Abu-CONH-nBu] | > 60 | 2.0
